“And” between values parts separate entries of the source, which are not always exact repeats. Equal values may be shown once.
Legend:
CYP2C9 = biological target: T1, CYP2C9 (Homo sapiens, UniProt P11712); assay: Single substrate DDI assay, reversible CYP inhibition in human liver microsomes; assay type: in vitro ADME
T1 construct: from tissue; host or cells: human liver microsomes

ATP blood levels [1] = assay: Phase 1: blood ATP levels in healthy volunteers (LC-MS/MS); assay type: in vivo, human; settings: for Mean maximum percent change from baseline in ATP: all doses and timepoints
Procedure: (§1) In this study, SAD/MAD cohorts are randomized (3 to 1) to receive Compound 1 or placebo (P). Compound 1 was evaluated first in 4 healthy SAD cohorts and 4 healthy MAD (14-day dosing period) cohorts. Based on the safety, and PK/PD profile from HS, Compound 1 is then evaluated in 1 SCD SAD cohort and 2 SCD MAD cohorts. Specifically, based on the safety and pharmacokinetic/pharmacodynamics (PK/PD) profile in healthy volunteer studies, Compound 1 is evaluated in patients (pts) with SCD, first in a single dose (SD or SAD) cohort and then in multiple-dose (MD or MAD) cohorts (14-day and 12-week). Safety assessments include AEs, vital signs, ECGs and laboratory parameters. PK/PD blood sampling was performed on Day 1 (SAD/MAD) and Day 14 (MAD) and up to 72 h after the last dose and at the end-of-study visit. PD parameters included 2,3-DPG, ATP, and p50 in all cohorts with additional PD studies (including oxygen scan) performed only in the SCD cohorts. PD parameters included 2,3-DPG, ATP, p50, RBC deformability with controlled deoxygenation and reoxygenation (Lorrca® oxygen scan) and varying osmolality (Lorrca® osmoscan)). To maintain study blind, pt identifiers were removed when needed.
In the MAD cohorts, the subjects' blood ATP levels were measured […] by a qualified LC-MS/MS method for the quantitation of ATP in blood. […] Table 20A reports the median percentage change in blood ATP levels, relative to baseline, measured over time after the first dose on days 1 and 14 in healthy volunteers who received daily doses of Compound 1 (100 mg BID, 200 mg BID, 300 mg BID, or 400 mg QD) or placebo for 14 days. Table 20B reports the mean percentage change in ATP blood levels, relative to baseline, measured over time after the first dose on days 1 and 14 in healthy volunteers who received daily doses of Compound 1 (100 mg BID, 200 mg BID, 300 mg BID, or 400 mg QD) for 14 days.
The following procedures are employed for the analysis of ATP and 2,3-DPG in human whole blood K2EDTA using a protein precipitation extraction procedure and analysis by LC-MS/MS. […]

[2] = tested on: H295R adreno-cortical carcinoma cell line; assay: Cell viability (MTT Kit); assay type: cell-based; settings: at 200 μM
Procedure: To assess potential effects on steroidogenesis, Compound 1 was screened for steroid modulation in vitro using the H295R adreno-cortical carcinoma cell line (at 200 to 0.0002 μM) and in an assay to monitor cell viability (MTT Kit). Compound 1 indicated steroid modulation potential (% over vehicle) only at 200 μM, the top concentration tested, with 100% cellular viability at concentrations≤20 μM (90% viability at 200 μM).

CYP2B6 = assay: CYP mRNA induction in cultured human hepatocytes; assay type: in vitro ADME; settings: donors AIH, EUJ, HC5-40 individually
[3] = biological target: T2, wt-PKR in mature human erythrocytes (Homo sapiens, UniProt P30613); assay: Cell assay: PKR activation in human RBCs (Biovision Pyruvate Kinase Assay); assay type: cell-based
T2 construct: host or cells: purified human RBCs from donors
Procedure: The activation of wt-PKR by Compound 1 in mature human erythrocytes ex vivo was evaluated in purified RBCs purchased from Research Blood Components. Cells treated with Compound 1 for 3 hr in glucose-containing media were washed, lysed, and assayed using a Biovision Pyruvate Kinase Assay (K709-100). The assay was repeated multiple times to account for donor-to-donor variability and the relatively narrow dynamic range.

ATP blood levels [4] = assay: Phase 1: blood ATP levels in SCD patients; assay type: in vivo, human; settings: single 700 mg dose (FIG. 54A)
Procedure: as §1, with “PD parameters included 2,3-DPG, ATP, and p50 in all cohorts with additional PD studies (including oxygen scan) performed only in the SCD cohorts. PD parameters included 2,3-DPG, ATP, p50, RBC deformability with controlled deoxygenation and reoxygenation (Lorrca® oxygen scan) and varying osmolality (Lorrca® osmoscan)). To maintain study blind, pt identifiers were removed when needed.” left out
The following table reports the mean percentage change in ATP blood levels, relative to baseline, measured over time in SCD patients after a single dose of Compound 1 (700 mg):
ATP levels were increased from baseline in patients receiving Compound 1, resulting in improved RBC function and reduced hemoloysis. The following table reports the mean percentage change in ATP blood levels, relative to baseline, measured over time after the first dose on days 1 and 14 in SCD patients who received daily doses of Compound 1 (300 mg QD) for 14 days: […]

CYP3A4 = assay: CYP mRNA induction in cultured human hepatocytes; assay type: in vitro ADME; settings: donors, HCS-40 individually

T2 sequence (P30613 whole entry): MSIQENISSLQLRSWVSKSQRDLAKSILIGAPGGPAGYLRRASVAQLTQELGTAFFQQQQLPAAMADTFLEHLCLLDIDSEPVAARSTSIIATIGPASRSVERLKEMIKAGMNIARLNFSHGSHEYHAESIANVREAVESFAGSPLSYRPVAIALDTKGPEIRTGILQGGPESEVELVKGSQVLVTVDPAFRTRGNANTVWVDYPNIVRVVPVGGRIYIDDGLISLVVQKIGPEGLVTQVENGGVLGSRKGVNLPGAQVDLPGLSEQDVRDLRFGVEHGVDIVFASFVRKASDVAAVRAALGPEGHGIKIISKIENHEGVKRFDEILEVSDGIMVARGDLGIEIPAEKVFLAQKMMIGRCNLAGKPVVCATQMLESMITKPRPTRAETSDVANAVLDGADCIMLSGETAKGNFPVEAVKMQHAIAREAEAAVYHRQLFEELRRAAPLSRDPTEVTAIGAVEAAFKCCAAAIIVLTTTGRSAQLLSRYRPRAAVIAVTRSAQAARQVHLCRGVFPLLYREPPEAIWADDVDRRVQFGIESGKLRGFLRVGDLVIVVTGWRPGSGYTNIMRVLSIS
T1 sequence (P11712 whole entry): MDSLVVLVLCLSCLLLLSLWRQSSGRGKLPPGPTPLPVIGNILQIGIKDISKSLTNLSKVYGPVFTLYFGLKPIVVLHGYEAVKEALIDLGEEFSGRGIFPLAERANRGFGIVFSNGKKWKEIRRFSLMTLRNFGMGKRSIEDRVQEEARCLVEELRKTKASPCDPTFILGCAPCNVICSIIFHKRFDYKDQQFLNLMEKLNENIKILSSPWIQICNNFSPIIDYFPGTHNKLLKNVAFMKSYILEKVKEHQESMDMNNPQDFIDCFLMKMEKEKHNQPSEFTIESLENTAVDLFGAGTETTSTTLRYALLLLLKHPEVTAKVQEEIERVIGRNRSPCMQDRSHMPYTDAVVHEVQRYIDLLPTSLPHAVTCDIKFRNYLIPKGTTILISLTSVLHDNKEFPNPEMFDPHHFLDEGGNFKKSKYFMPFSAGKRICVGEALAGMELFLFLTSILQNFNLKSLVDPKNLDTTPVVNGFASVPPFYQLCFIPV

O=C([C@H](CO)c1ccccc1)N1CC2=C(C1)CN(S(=O)(=O)c1cnc3c(c1)OCCO3)C2 (single isomer, unassigned) [Compound 1]
IC50 (CYP2C9): > 30 µM
Mean maximum percent change from baseline in ATP (ATP blood levels [1]; HV MAD, N = 36): 68.5%
Mean maximum percent change from baseline in ATP (ATP blood levels [1]; HV SAD, N = 24): 24.4%
lag of maximum ATP increase behind maximum plasma concentration (ATP blood levels [1]; HV, single 200-1000 mg dose): at least 24 hours
cellular viability [2]: 90%
mRNA Fold Induction CYP2B6 (CYP2B6; 0.033 μM): 1.17 fold
mRNA Fold Induction CYP2B6 (CYP2B6; 0.1 μM): 1.23 fold and 1.06 fold
mRNA Fold Induction CYP2B6 (CYP2B6; 0.33 μM): 1.10 fold and 0.964 fold
mRNA Fold Induction CYP2B6 (CYP2B6; 1 μM): 1.29 fold
mRNA Fold Induction CYP2B6 (CYP2B6; 3.3 μM): 1.24 fold
mRNA Fold Induction CYP2B6 (CYP2B6; 10 μM): 1.43 fold and 1.21 fold
fold induction at 1 µM (CYP2B6; human, 1 μM): 1.07
fold induction at 3.3 µM (CYP2B6; human, 3.3 μM): 1.25
fold induction at 0.033 µM (CYP2B6; human, primary cultured human hepatocytes, 0.033 μM): 0.982
fold induction at 0.1 µM (CYP2B6; human, primary cultured human hepatocytes, 0.1 μM): 1.01
fold induction at 0.33 µM (CYP2B6; human, primary cultured human hepatocytes, 0.33 μM): 1
fold induction at 1 µM (CYP2B6; human, primary cultured human hepatocytes, 1 μM): 1
fold induction at 3.3 µM (CYP2B6; human, primary cultured human hepatocytes, 3.3 μM): 1.26
fold induction at 10 µM (CYP2B6; human, primary cultured human hepatocytes, 10 μM): 1.7
EC50 ([3]; Cell Assay of Example 4): < 0.5 µM
Max − Min (%) ([3]; human RBCs, 3 hr, individual replicates 1-4): <150% and <100% and <50%
Mean maximum activation increase (Max − Min) ([3]; human RBCs, 3 hr, mean of replicates): <100%
lag of maximum ATP increase behind maximum plasma concentration (ATP blood levels [4]): at least 24 hours
mRNA Fold Induction CYP3A4 (CYP3A4; 0.033 μM): 0.940 fold and 1.09 fold and 1.25 fold
mRNA Fold Induction CYP3A4 (CYP3A4; 0.1 μM): 1.13 fold and 0.875 fold and 0.889 fold
mRNA Fold Induction CYP3A4 (CYP3A4; 0.33 μM): 1.11 fold and 1.18 fold and 0.836 fold
mRNA Fold Induction CYP3A4 (CYP3A4; 1 μM): 1.41 fold and 1.07 fold and 1.18 fold
mRNA Fold Induction CYP3A4 (CYP3A4; 3.3 μM): 1.84 fold and 1.25 fold and 1.62 fold
mRNA Fold Induction CYP3A4 (CYP3A4; 10 μM): 3.60 fold and 2.23 fold and 1.29 fold

Source: US20220087983A1, “ACTIVATING PYRUVATE KINASE R” (FORMA Therapeutics, Inc., priority 2020, published 2022)
